Measured values from publication PMC5945515, “Measuring glucocorticoid receptor expression in vivo with PET” (Oncotarget, 2018).

Tests used:
[1] = Log P determination (octanol:water); type: physicochemical; conditions: octanol:water 1:1 v/v
Protocol: To a microcentrifuge tube containing 1 mL of octanol:water (1:1 v/v) was added 50 μL of ^18F-GR02 (total activity = 37 MBq). The solution was vortexed vigorously for 30 sec, and the biphasic layers were allowed to separate. The layers were manually pipetted into new microcentrifuge tubes, and the activity of each fraction was read with a dose calibrator. The water fraction contained 1.7 MBq, and the octanol fraction contained 35.3 MBq.

mouse GR = target: T1, mouse GR (Mus musculus, UniProt P06537); experiment: Competition binding assay on cells, mouse GR; conditions: GL261 cells, displacing 3H-dexamethasone; read-out: KD msGR
T1 construct: endogenous in cells; host or cells: GL261
T1 sequence (P06537 1-792): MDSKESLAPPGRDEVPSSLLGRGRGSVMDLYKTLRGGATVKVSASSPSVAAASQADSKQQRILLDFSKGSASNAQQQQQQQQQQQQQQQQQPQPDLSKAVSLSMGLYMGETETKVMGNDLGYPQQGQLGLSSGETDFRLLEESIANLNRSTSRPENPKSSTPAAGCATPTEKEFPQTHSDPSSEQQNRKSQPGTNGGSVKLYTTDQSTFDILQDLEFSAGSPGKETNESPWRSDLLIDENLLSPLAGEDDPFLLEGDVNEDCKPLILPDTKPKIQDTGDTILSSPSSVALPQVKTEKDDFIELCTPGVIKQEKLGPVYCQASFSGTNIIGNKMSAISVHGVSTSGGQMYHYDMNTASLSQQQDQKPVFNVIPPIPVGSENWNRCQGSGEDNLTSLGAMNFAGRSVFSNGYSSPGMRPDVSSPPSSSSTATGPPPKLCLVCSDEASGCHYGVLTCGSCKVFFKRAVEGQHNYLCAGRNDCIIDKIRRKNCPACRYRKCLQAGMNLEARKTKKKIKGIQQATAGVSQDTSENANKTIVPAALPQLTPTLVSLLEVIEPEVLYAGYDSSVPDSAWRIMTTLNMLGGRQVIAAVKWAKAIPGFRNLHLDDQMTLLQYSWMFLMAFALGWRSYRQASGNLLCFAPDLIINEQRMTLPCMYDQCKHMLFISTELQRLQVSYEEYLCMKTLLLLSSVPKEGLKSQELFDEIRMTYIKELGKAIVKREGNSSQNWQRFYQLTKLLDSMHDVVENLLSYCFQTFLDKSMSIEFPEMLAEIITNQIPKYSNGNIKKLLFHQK
Protocol: The KD for subfamily 3 group C nuclear hormone receptors was determined on cells by displacing ^3H-steroidal agonists for the respective receptor. […].
The cold ligands and ^3H-steroids were co-incubated on cells in PBS at room temperature for one hour. Following incubation, the cells were washed twice with ice cold PBS and the unbound activity was retained for analysis. The cells were lysed with 1 mL of 1 M NaOH and collected. Bound and unbound fractions were counted in a liquid scintillation counter and expressed as a percentage of the total activity added per equal relative number of cells. […]. The specific binding component was plotted against the log of the competing ligand and curve fit using a non-linear regression algorithm with PRISM software.

## C[C@]12C=CC(=O)C=C1CCC1C2[C@@H](O)C[C@@]2(C)C1CC[C@]2(O)C(=O)CNC(=O)c1ccc(F)cc1 (some centres unmarked) [GR02]
[1]
  logP: 1.33
Mouse GR
  Kd: 6.71 nM
